In patent US12723063B2, “GIPR-agonist compounds” (Eli Lilly and Company, priority 2019, dated 2026):
*1 amine or outer side, *2 acyl side, *3 side chain or, on linkers, in order; H or OH if unused. Where a SMILES comes first, the peptide text is derived from it. Side-chain parts run from the residue outwards. [ ]: non-standard residue; d: D form. The star is where a group is joined. C20 diacid = O=C(O)CCCCCCCCCCCCCCCCCCC(=O)*; C18 diacid = O=C(O)CCCCCCCCCCCCCCCCC(=O)*; αMePhe(2-F) = C[C@](N)(Cc1ccccc1F)C(=O)O; γGlu = O=C(O)[C@H](CCC(=O)[*:2])N[*:1]; 4Pal = N[C@@H](Cc1ccncc1)C(=O)O; αMeL = CC(C)C[C@](C)(N)C(=O)O; Iva = CC[C@](C)(N)C(=O)O; AEEA = NCCOCCOCC(=O)O; Aib = CC(C)(N)C(=O)O

Columns and labels:
human GLP-1R = target: T1, human GLP-1R (Homo sapiens, UniProt P43220); test: [125I]-GLP-1 binding, SPA with WGA beads, 0.1% bacitracin; settings: geometric mean, read-out: hGLP1R Ki
T1 construct: expressed in transfected cells; crude membranes
Procedure, shortened: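 Binding buffer was 25 mM HEPES pH 7.4 with 2.5 mM CaCl2, 1 mM MgCl2, 0.1% (w/v) bacitracin, 0.003% Tween-20 and EDTA-free protease inhibitors. Four-parameter regression gave IC50, converted to Ki (geometric mean, SEM, n independent days).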

human GcgR = target: T2, human GcgR (Homo sapiens, UniProt P47871); test: [125I]-Glucagon binding, SPA with WGA beads, 0.1% bacitracin; settings: geometric mean, read-out: hGcgR Ki
T2 construct: expressed in transfected cells; crude membranes
Procedure, shortened: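 SPA competition binding with WGA beads on crude membranes from HEK293 cells stably expressing hGcgR. Buffer: 25 mM HEPES pH 7.4, 2.5 mM CaCl2, 1 mM MgCl2, 0.1% bacitracin, 0.003% Tween-20; 10-point 3-fold dilutions, NSB with 1 μM Gcg.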

T1 sequence (P43220 24-463): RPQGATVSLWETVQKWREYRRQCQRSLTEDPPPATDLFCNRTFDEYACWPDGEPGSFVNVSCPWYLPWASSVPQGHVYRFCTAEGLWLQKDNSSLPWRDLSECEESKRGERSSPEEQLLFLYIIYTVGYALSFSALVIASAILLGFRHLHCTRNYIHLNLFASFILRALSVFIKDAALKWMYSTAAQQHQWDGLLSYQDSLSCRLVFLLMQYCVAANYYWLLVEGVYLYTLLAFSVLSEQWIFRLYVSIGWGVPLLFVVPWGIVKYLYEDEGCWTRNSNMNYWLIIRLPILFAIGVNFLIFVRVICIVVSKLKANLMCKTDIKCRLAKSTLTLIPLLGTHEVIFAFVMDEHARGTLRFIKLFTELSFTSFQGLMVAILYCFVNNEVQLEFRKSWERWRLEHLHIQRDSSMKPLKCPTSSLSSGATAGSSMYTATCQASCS
T2 sequence (P47871 26-477): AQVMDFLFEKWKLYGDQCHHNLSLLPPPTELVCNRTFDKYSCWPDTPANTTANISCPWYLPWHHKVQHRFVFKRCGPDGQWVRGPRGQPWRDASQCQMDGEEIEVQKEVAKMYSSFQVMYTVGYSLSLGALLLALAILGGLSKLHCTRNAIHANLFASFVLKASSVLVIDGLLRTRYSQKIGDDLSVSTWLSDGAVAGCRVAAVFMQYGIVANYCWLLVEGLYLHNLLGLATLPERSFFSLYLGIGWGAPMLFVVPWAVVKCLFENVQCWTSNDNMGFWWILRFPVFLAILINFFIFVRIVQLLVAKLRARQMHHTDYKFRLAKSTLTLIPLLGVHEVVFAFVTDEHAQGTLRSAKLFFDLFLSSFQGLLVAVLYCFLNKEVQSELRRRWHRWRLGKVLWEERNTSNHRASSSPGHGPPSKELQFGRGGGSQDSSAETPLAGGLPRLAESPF

Row | Compound | Ki (human GLP-1R) | Ki (human GcgR)
1 | CC[C@H](C)[C@H](NC(=O)[C@H](CO)NC(=O)[C@H](Cc1ccc(O)cc1)NC(=O)[C@H](CC(=O)O)NC(=O)[C@H](CO)NC(=O)[C@@H](NC(=O)[C@H](Cc1ccccc1)NC(=O)[C@@H](NC(=O)CNC(=O)[C@H](CCC(=O)O)NC(=O)[C@@H](C)NC(=O)[C@@H](N)Cc1ccc(O)cc1)[C@@H](C)O)[C@@H](C)CC)C(=O)N[C@@H](CC(C)C)C(=O)N[C@@H](CC(C)C)C(=O)N[C@@H](CC(=O)O)C(=O)N[C@@H](CCCCN)C(=O)N[C@@H](CCCCNC(=O)COCCOCCNC(=O)COCCOCCNC(=O)CC[C@H](NC(=O)CCCCCCCCCCCCCCCCC(=O)O)C(=O)O)C(=O)N[C@@H](C)C(=O)N[C@@H](CCC(N)=O)C(=O)NC(C)(C)C(=O)N[C@@H](CCC(=O)O)C(=O)N[C@@H](Cc1ccccc1)C(=O)N[C@H](C(=O)N[C@@H](CCC(N)=O)C(=O)N[C@@H](Cc1c[nH]c2ccccc12)C(=O)N[C@@H](CC(C)C)C(=O)N[C@@H](CC(C)C)C(=O)N[C@@H](C)C(=O)NCC(=O)NCC(=O)N1CCC[C@H]1C(=O)N[C@@H](CO)C(=O)N[C@@H](CO)C(=O)NCC(=O)N[C@@H](C)C(=O)N1CCC[C@H]1C(=O)N1CCC[C@H]1C(=O)N1CCC[C@H]1C(=O)N[C@@H](CO)C(N)=O)C(C)C [Example 27] (H-Y[dA]EGTFISDYSILLDKK([AEEA-AEEA-γGlu-C18 diacid])AQ[Aib]EFVQWLLAGGPSSGAPPPS-NH2) | 23.2 nM | 401 nM
2 | CC[C@H](C)[C@H](NC(=O)[C@H](CO)NC(=O)[C@H](Cc1ccc(O)cc1)NC(=O)[C@H](CC(=O)O)NC(=O)[C@H](CO)NC(=O)[C@@H](NC(=O)[C@H](Cc1ccccc1)NC(=O)[C@@H](NC(=O)CNC(=O)[C@H](CCC(=O)O)NC(=O)[C@@H](C)NC(=O)[C@@H](N)Cc1ccc(O)cc1)[C@@H](C)O)[C@@H](C)CC)C(=O)N[C@@H](CC(C)C)C(=O)N[C@@H](CC(C)C)C(=O)N[C@@H](CC(=O)O)C(=O)N[C@@H](CCCCN)C(=O)N[C@@H](CCCCNC(=O)COCCOCCNC(=O)COCCOCCNC(=O)CC[C@H](NC(=O)CCCCCCCCCCCCCCCCC(=O)O)C(=O)O)C(=O)N[C@@H](C)C(=O)N[C@@H](CCC(N)=O)C(=O)NC(C)(C)C(=O)N[C@@H](CCC(=O)O)C(=O)N[C@@H](Cc1ccccc1)C(=O)N[C@H](C(=O)N[C@@H](CC(N)=O)C(=O)N[C@@H](Cc1c[nH]c2ccccc12)C(=O)N[C@@H](CC(C)C)C(=O)N[C@@H](CC(C)C)C(=O)N[C@@H](CCC(=O)O)C(=O)NCC(=O)NCC(=O)N1CCC[C@H]1C(=O)N[C@@H](CO)C(=O)N[C@@H](CO)C(=O)NCC(=O)N[C@@H](C)C(=O)N1CCC[C@H]1C(=O)N1CCC[C@H]1C(=O)N1CCC[C@H]1C(=O)N[C@@H](CO)C(N)=O)C(C)C [Example 28] (H-Y[dA]EGTFISDYSILLDKK([AEEA-AEEA-γGlu-C18 diacid])AQ[Aib]EFVNWLLEGGPSSGAPPPS-NH2) | 6.46 nM | 86.8 nM
3 | CC[C@H](C)[C@H](NC(=O)[C@H](CO)NC(=O)[C@H](Cc1ccc(O)cc1)NC(=O)[C@H](CC(=O)O)NC(=O)[C@H](CO)NC(=O)[C@@H](NC(=O)[C@H](Cc1ccccc1)NC(=O)[C@@H](NC(=O)CNC(=O)[C@H](CCC(=O)O)NC(=O)[C@@H](C)NC(=O)[C@@H](N)Cc1ccc(O)cc1)[C@@H](C)O)[C@@H](C)CC)C(=O)N[C@@H](CC(C)C)C(=O)N[C@@H](CC(C)C)C(=O)N[C@@H](CC(=O)O)C(=O)N[C@@H](CCCCN)C(=O)N[C@@H](CCCCNC(=O)COCCOCCNC(=O)COCCOCCNC(=O)CC[C@H](NC(=O)CCCCCCCCCCCCCCCCC(=O)O)C(=O)O)C(=O)N[C@@H](C)C(=O)N[C@@H](CCC(N)=O)C(=O)NC(C)(C)C(=O)N[C@@H](CCC(=O)O)C(=O)N[C@@H](Cc1ccccc1)C(=O)N[C@H](C(=O)N[C@@H](CCC(=O)O)C(=O)N[C@@H](Cc1c[nH]c2ccccc12)C(=O)N[C@@H](CC(C)C)C(=O)N[C@@H](CC(C)C)C(=O)N[C@@H](C)C(=O)NCC(=O)NCC(=O)N1CCC[C@H]1C(=O)N[C@@H](CO)C(=O)N[C@@H](CO)C(=O)NCC(=O)N[C@@H](C)C(=O)N1CCC[C@H]1C(=O)N1CCC[C@H]1C(=O)N1CCC[C@H]1C(=O)N[C@@H](CO)C(N)=O)C(C)C [Example 29] (H-Y[dA]EGTFISDYSILLDKK([AEEA-AEEA-γGlu-C18 diacid])AQ[Aib]EFVEWLLAGGPSSGAPPPS-NH2) | 22.7 nM | 133 nM
4 | CC[C@H](C)[C@H](NC(=O)[C@H](CO)NC(=O)[C@H](Cc1ccc(O)cc1)NC(=O)[C@H](CC(=O)O)NC(=O)[C@H](CO)NC(=O)[C@@H](NC(=O)[C@](C)(Cc1ccccc1F)NC(=O)[C@@H](NC(=O)CNC(=O)[C@H](CCC(=O)O)NC(=O)[C@H](C)NC(=O)[C@@H](Cc1ccc(O)cc1)NC(C)=O)[C@@H](C)O)[C@@H](C)CC)C(=O)N[C@@H](C)C(=O)N[C@@H](CC(C)C)C(=O)N[C@@H](CC(=O)O)C(=O)N[C@@H](CCCCN)C(=O)N[C@@H](CCCCNC(=O)COCCOCCNC(=O)COCCOCCNC(=O)CC[C@H](NC(=O)CCCCCCCCCCCCCCCCC(=O)O)C(=O)O)C(=O)N[C@@H](Cc1c[nH]cn1)C(=O)N[C@@H](CCC(N)=O)C(=O)NC(C)(C)C(=O)N[C@@H](CCC(=O)O)C(=O)N[C@@H](Cc1ccccc1)C(=O)N[C@H](C(=O)N[C@@H](CC(N)=O)C(=O)N[C@@H](Cc1ccc(O)cc1)C(=O)N[C@@H](CC(C)C)C(=O)N[C@@H](CC(C)C)C(=O)N[C@@H](C)C(=O)NCC(=O)NCC(=O)N1CCC[C@H]1C(=O)N[C@@H](CO)C(=O)N[C@@H](CO)C(=O)NCC(=O)N[C@@H](C)C(=O)N1CCC[C@H]1C(=O)N1CCC[C@H]1C(=O)N1CCC[C@H]1C(=O)N[C@@H](CO)C(N)=O)C(C)C [Example 30] (Ac-[dY]AEGT[αMePhe(2-F)]ISDYSIALDKK([AEEA-AEEA-γGlu-C18 diacid])HQ[Aib]EFVNYLLAGGPSSGAPPPS-NH2) | 26.5 nM | 407 nM
5 | CC[C@H](C)[C@H](NC(=O)[C@H](CO)NC(=O)[C@H](Cc1ccc(O)cc1)NC(=O)[C@H](CC(=O)O)NC(=O)[C@H](CO)NC(=O)[C@@H](NC(=O)[C@H](Cc1ccccc1)NC(=O)[C@@H](NC(=O)CNC(=O)[C@H](CCC(=O)O)NC(=O)C(C)(C)NC(=O)[C@@H](N)Cc1ccc(O)cc1)[C@@H](C)O)[C@@H](C)CC)C(=O)N[C@@H](CC(C)C)C(=O)N[C@@H](CC(C)C)C(=O)N[C@@H](CC(=O)O)C(=O)N[C@@H](CCCCN)C(=O)N[C@@H](CCCCNC(=O)COCCOCCNC(=O)COCCOCCNC(=O)CC[C@H](NC(=O)CCCCCCCCCCCCCCCCC(=O)O)C(=O)O)C(=O)N[C@@H](Cc1c[nH]cn1)C(=O)N[C@@H](CCC(N)=O)C(=O)NC(C)(C)C(=O)N[C@@H](CC(=O)O)C(=O)N[C@@H](Cc1ccccc1)C(=O)N[C@H](C(=O)N[C@@H](CC(N)=O)C(=O)N[C@@H](Cc1ccc(O)cc1)C(=O)N[C@@H](CC(C)C)C(=O)N[C@@H](CC(C)C)C(=O)N[C@@H](C)C(=O)N[C@@H](C)C(=O)NCC(=O)N1CCC[C@H]1C(=O)N[C@@H](CO)C(=O)N[C@@H](CO)C(=O)NCC(=O)N[C@@H](C)C(=O)N1CCC[C@H]1C(=O)N1CCC[C@H]1C(=O)N1CCC[C@H]1C(=O)N[C@@H](CO)C(N)=O)C(C)C [Example 31] (H-Y[Aib]EGTFISDYSILLDKK([AEEA-AEEA-γGlu-C18 diacid])HQ[Aib]DFVNYLLAAGPSSGAPPPS-NH2) | 266 nM | > 959 nM
6 | CC[C@H](C)[C@H](NC(=O)[C@H](CC(C)C)NC(=O)[C@@H](NC(=O)CNC(=O)[C@H](CCC(=O)O)NC(=O)C(C)(C)NC(=O)[C@@H](N)Cc1ccc(O)cc1)[C@@H](C)O)C(=O)N[C@@H](CO)C(=O)N[C@@H](CC(=O)O)C(=O)N[C@@H](Cc1ccc(O)cc1)C(=O)N[C@@H](CO)C(=O)N[C@H](C(=O)N[C@@](C)(CC(C)C)C(=O)N[C@@H](CC(C)C)C(=O)N[C@@H](CC(=O)O)C(=O)N[C@@H](CCCCN)C(=O)N[C@@H](CCCCNC(=O)COCCOCCNC(=O)COCCOCCNC(=O)CC[C@H](NC(=O)CCCCCCCCCCCCCCCCCCC(=O)O)C(=O)O)C(=O)N[C@@H](Cc1c[nH]cn1)C(=O)N[C@@H](CCC(N)=O)C(=O)NC(C)(C)C(=O)N[C@@H](CCC(=O)O)C(=O)N[C@@H](Cc1ccccc1)C(=O)N[C@H](C(=O)N[C@@H](CCC(=O)O)C(=O)N[C@@H](Cc1ccc(O)cc1)C(=O)N[C@@H](CC(C)C)C(=O)N[C@@H](CC(C)C)C(=O)N[C@@H](CCC(=O)O)C(=O)NCC(=O)NCC(=O)N1CCC[C@H]1C(=O)N[C@@H](CO)C(=O)N[C@@H](CO)C(=O)NCC(=O)N[C@@H](C)C(=O)N1CCC[C@H]1C(=O)N1CCC[C@H]1C(=O)N1CCC[C@H]1C(=O)N[C@@H](CO)C(N)=O)C(C)C)[C@@H](C)CC [Example 73] (H-Y[Aib]EGTLISDYSI[αMeL]LDKK([AEEA-AEEA-γGlu-C20 diacid])HQ[Aib]EFVEYLLEGGPSSGAPPPS-NH2) | 117 nM | 292 nM
7 | CC[C@H](C)[C@H](NC(=O)[C@H](CO)NC(=O)[C@H](Cc1ccc(O)cc1)NC(=O)[C@H](CC(=O)O)NC(=O)[C@H](CO)NC(=O)[C@@H](NC(=O)[C@](C)(CC)NC(=O)[C@@H](NC(=O)CNC(=O)[C@H](CCC(=O)O)NC(=O)C(C)(C)NC(=O)[C@@H](N)Cc1ccc(O)cc1)[C@@H](C)O)[C@@H](C)CC)C(=O)N[C@@](C)(CC(C)C)C(=O)N[C@@H](CC(C)C)C(=O)N[C@@H](CC(=O)O)C(=O)N[C@@H](CCCCN)C(=O)N[C@@H](CCCCNC(=O)COCCOCCNC(=O)COCCOCCNC(=O)CC[C@H](NC(=O)CCCCCCCCCCCCCCCCCCC(=O)O)C(=O)O)C(=O)N[C@@H](Cc1c[nH]cn1)C(=O)N[C@@H](CCC(N)=O)C(=O)NC(C)(C)C(=O)N[C@@H](CC(=O)O)C(=O)N[C@@H](Cc1ccccc1)C(=O)N[C@H](C(=O)N[C@@H](CCC(=O)O)C(=O)N[C@@H](Cc1ccncc1)C(=O)N[C@@H](CC(C)C)C(=O)N[C@@H](CC(C)C)C(=O)N[C@@H](CCC(=O)O)C(=O)NCC(=O)NCC(=O)N1CCC[C@H]1C(=O)N[C@@H](CO)C(=O)N[C@@H](CO)C(=O)NCC(=O)N[C@@H](C)C(=O)N1CCC[C@H]1C(=O)N1CCC[C@H]1C(=O)N1CCC[C@H]1C(=O)N[C@@H](CO)C(N)=O)C(C)C [Example 74] (H-Y[Aib]EGT[Iva]ISDYSI[αMeL]LDKK([AEEA-AEEA-γGlu-C20 diacid])HQ[Aib]DFVE[4Pal]LLEGGPSSGAPPPS-NH2) | 395 nM | 511 nM
